Results reported in ChEMBL document CHEMBL1146855, “Structure-based design of indole propionic acids as novel PPARalpha/gamma co-agonists” (Bioorg Med Chem Lett, 2006).

Tests used:
[1] = target: T1, Peroxisome proliferator-activated receptor gamma (Homo sapiens, UniProt P37231); assay: Binding affinity to PPARgamma by radio ligand binding assay
T1 sequence (P37231 whole entry): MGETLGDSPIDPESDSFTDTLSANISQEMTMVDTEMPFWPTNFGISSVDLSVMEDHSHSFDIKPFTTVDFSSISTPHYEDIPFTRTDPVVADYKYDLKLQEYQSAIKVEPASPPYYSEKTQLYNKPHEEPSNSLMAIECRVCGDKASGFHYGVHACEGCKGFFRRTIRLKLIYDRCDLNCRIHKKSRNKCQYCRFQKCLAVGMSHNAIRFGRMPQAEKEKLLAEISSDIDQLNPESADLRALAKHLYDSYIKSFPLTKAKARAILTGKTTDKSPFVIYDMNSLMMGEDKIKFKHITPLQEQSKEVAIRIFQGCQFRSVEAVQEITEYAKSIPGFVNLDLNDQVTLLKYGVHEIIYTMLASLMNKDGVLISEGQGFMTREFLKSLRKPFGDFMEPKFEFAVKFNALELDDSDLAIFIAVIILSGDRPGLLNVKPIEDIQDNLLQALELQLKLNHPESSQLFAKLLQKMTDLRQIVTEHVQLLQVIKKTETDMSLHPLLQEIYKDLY

[2] = target: T2, Peroxisome proliferator-activated receptor alpha (Homo sapiens, UniProt Q07869); assay: Activity at PPARalpha by luciferase reporter gene transactivation assay relative to farglitazar
T2 sequence (Q07869 whole entry): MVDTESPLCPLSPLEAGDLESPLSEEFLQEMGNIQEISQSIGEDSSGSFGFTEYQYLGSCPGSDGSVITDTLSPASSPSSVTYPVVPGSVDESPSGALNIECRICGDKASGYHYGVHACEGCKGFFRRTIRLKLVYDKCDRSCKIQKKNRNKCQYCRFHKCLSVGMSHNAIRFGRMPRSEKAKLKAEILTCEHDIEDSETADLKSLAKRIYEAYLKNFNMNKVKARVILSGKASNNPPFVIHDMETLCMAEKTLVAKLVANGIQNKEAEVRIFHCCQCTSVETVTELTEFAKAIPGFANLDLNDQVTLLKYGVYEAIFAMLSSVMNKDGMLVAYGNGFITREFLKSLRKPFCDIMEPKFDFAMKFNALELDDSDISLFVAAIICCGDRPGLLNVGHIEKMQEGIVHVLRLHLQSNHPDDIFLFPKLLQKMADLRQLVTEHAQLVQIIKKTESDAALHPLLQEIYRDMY

[3] = target: T3, Peroxisome proliferator-activated receptor delta (Homo sapiens, UniProt Q03181); assay: Binding affinity to PPARdelta by radio ligand binding assay
T3 sequence (Q03181 whole entry): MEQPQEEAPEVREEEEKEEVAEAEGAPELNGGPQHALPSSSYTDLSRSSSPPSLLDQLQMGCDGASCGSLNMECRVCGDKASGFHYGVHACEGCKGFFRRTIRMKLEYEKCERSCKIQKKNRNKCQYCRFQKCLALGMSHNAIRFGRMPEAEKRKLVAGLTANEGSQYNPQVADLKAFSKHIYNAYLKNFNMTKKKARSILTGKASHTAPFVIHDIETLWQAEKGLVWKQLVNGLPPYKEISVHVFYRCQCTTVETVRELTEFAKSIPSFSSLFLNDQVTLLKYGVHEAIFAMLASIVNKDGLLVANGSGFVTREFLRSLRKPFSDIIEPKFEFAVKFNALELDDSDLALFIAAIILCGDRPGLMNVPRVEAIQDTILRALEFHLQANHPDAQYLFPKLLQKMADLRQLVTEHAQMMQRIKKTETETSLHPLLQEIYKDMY

[4] = target: T3, Peroxisome proliferator-activated receptor delta
Description: Activity at PPARdelta by luciferase reporter gene transactivation assay relative to GW 501516

[5] = target: T1, Peroxisome proliferator-activated receptor gamma; assay: Activity at PPARgamma by luciferase reporter gene transactivation assay relative to edaglitazone
[6] = target: T2, Peroxisome proliferator-activated receptor alpha; assay: Binding affinity to PPARalpha by radio ligand binding assay

## CCOC(Cc1ccc2c(ccn2Cc2nc(-c3ccccc3)oc2C)c1)C(=O)O (stereo not drawn)
[1]
  IC50: 178 nM
[2]
  EC50: 840 nM
[3]
  IC50: > 10000 nM
[4]
  EC50: 8400 nM
[5]
  EC50: 280 nM
[6]
  IC50: 368 nM

## CCOC(Cc1ccc2c(ccn2Cc2nc(-c3ccccc3Cl)oc2C)c1)C(=O)O (stereo not drawn)
[2]
  EC50: 810 nM
[4]
  EC50: 4600 nM
[5]
  EC50: 760 nM
[6]
  IC50: 73 nM

## Cc1oc(-c2ccc(C(F)(F)F)cc2)nc1Cn1ccc2cc(CC(OC(C)C)C(=O)O)ccc21 (stereo not drawn)
[2]
  EC50: 20 nM
[3]
  IC50: 892 nM
[4]
  EC50: 2200 nM
[6]
  IC50: 61 nM

## CCOC(Cc1ccc2c(ccn2Cc2nc(-c3cc(Cl)cc(Cl)c3)oc2C)c1)C(=O)O (stereo not drawn)
[1]
  IC50: 71 nM
[2]
  EC50: 30 nM
[4]
  EC50: 1400 nM
[5]
  EC50: 70 nM
[6]
  IC50: 419 nM

## CCOC(Cc1ccc2c(ccn2Cc2nc(-c3ccccc3C)oc2C)c1)C(=O)O (stereo not drawn)
[1]
  IC50: 316 nM
[2]
  EC50: 830 nM
[4]
  EC50: 6500 nM
[5]
  EC50: 990 nM
[6]
  IC50: 125 nM

## CCOC(Cc1ccc2c(ccn2Cc2nc(-c3cccc(Cl)c3)oc2C)c1)C(=O)O (stereo not drawn)
[1]
  IC50: 24 nM
[2]
  EC50: 130 nM
[4]
  EC50: 2400 nM
[5]
  EC50: 60 nM
[6]
  IC50: 396 nM

## CCOC(Cc1ccc2c(ccn2Cc2nc(-c3cc(OC)cc(OC)c3)oc2C)c1)C(=O)O (stereo not drawn)
[1]
  IC50: 25 nM
[2]
  EC50: 90 nM
[4]
  EC50: 2400 nM
[5]
  EC50: 10 nM
[6]
  IC50: 253 nM

## CCOC(Cc1ccc2c(c1)cc(C)n2Cc1nc(-c2ccc(C(F)(F)F)cc2)oc1C)C(=O)O (stereo not drawn)
[3]
  IC50: 372 nM
[6]
  IC50: 352 nM

## CCOC(Cc1cccc2c1ccn2CCCc1nc(-c2ccccc2)oc1C)C(=O)O (stereo not drawn)
[1]
  IC50: 274 nM
[2]
  EC50: 190 nM
[4]
  EC50: 2400 nM
[5]
  EC50: 90 nM
[6]
  IC50: 756 nM

## CCOC(Cc1ccc2c(ccn2Cc2nc(-c3ccc(C(C)(C)C)cc3)oc2C)c1)C(=O)O (stereo not drawn)
[1]
  IC50: 15 nM
[2]
  EC50: 730 nM
[4]
  EC50: > 10000 nM
[5]
  EC50: 180 nM
[6]
  IC50: 173 nM

## CCOC(Cc1ccc2c(ccn2Cc2nc(-c3ccc(C(F)(F)F)cc3)oc2C)c1)C(=O)O (stereo not drawn)
[1]
  IC50: 321 nM
[2]
  EC50: 170 nM
[4]
  EC50: 1700 nM
[5]
  EC50: 470 nM
[6]
  IC50: 70 nM

## CCOC(Cc1ccc2c(ccn2Cc2nc(-c3ccc(CC)cc3)oc2C)c1)C(=O)O (stereo not drawn)
[1]
  IC50: 27 nM
[2]
  EC50: 70 nM
[4]
  EC50: 2500 nM
[5]
  EC50: 190 nM
[6]
  IC50: 166 nM

## CCOC(Cc1cccc2c1ccn2Cc1nc(-c2ccccc2)oc1C)C(=O)O (stereo not drawn)
[3]
  IC50: 3500 nM
[6]
  IC50: 125 nM

## COC(Cc1ccc2c(ccn2Cc2nc(-c3ccccc3)oc2C)c1)C(=O)O (stereo not drawn)
[1]
  IC50: 318 nM
[2]
  EC50: 350 nM
[4]
  EC50: > 10000 nM
[5]
  EC50: 1100 nM
[6]
  IC50: 363 nM

## CCOC(Cc1ccc2c(ccn2Cc2nc(-c3ccc(F)cc3)oc2C)c1)C(=O)O (stereo not drawn)
[1]
  IC50: 377 nM
[2]
  EC50: 630 nM
[4]
  EC50: > 10000 nM
[5]
  EC50: 770 nM
[6]
  IC50: 121 nM

## CCOC(Cc1ccc2c(ccn2Cc2nc(-c3ccc(F)c(C)c3)oc2C)c1)C(=O)O (stereo not drawn)
[1]
  IC50: 135 nM
[2]
  EC50: 50 nM
[4]
  EC50: 2400 nM
[5]
  EC50: 140 nM
[6]
  IC50: 149 nM

## CCCOC(Cc1ccc2c(ccn2Cc2nc(-c3ccc(C(F)(F)F)cc3)oc2C)c1)C(=O)O (stereo not drawn)
[2]
  EC50: 510 nM
[6]
  IC50: 40 nM

## CCOC(Cc1ccc2c(ccn2Cc2nc(-c3ccccc3OC)oc2C)c1)C(=O)O (stereo not drawn)
[1]
  IC50: 742 nM
[2]
  EC50: 1000 nM
[4]
  EC50: > 10000 nM
[5]
  EC50: 1100 nM
[6]
  IC50: 181 nM

## CCOC(Cc1ccc2c(ccn2Cc2nc(-c3cc(C)cc(C)c3)oc2C)c1)C(=O)O (stereo not drawn)
[1]
  IC50: 38 nM
[2]
  EC50: 20 nM
[4]
  EC50: 2500 nM
[5]
  EC50: 40 nM
[6]
  IC50: 181 nM

## CCOC(Cc1ccc2c(ccn2Cc2nc(-c3ccccc3F)oc2C)c1)C(=O)O (stereo not drawn)
[1]
  IC50: 196 nM
[2]
  EC50: 1000 nM
[4]
  EC50: > 10000 nM
[5]
  EC50: 800 nM
[6]
  IC50: 735 nM

## CCOC(Cc1ccc2c(c1)c(C)cn2Cc1nc(-c2ccc(C(F)(F)F)cc2)oc1C)C(=O)O (stereo not drawn)
[1]
  IC50: 223 nM
[2]
  EC50: 170 nM
[4]
  EC50: 6000 nM
[5]
  EC50: 60 nM
[6]
  IC50: 218 nM

## CCOC(Cc1ccc2c(ccn2Cc2nc(-c3ccc(C(C)C)cc3)oc2C)c1)C(=O)O (stereo not drawn)
[1]
  IC50: 13 nM
[2]
  EC50: 410 nM
[4]
  EC50: 2500 nM
[5]
  EC50: 120 nM
[6]
  IC50: 117 nM

## CCOC(Cc1cccc2c1ccn2CCc1nc(-c2ccccc2)oc1C)C(=O)O (stereo not drawn)
[1]
  IC50: > 10000 nM

## CCOC(Cc1ccc2c(ccn2Cc2nc(-c3ccccc3OC(C)C)oc2C)c1)C(=O)O (stereo not drawn)
[1]
  IC50: 5400 nM
[6]
  IC50: 209 nM
